Laboratory results from patent US11285135B2 (AMGEN INC., priority 2016, dated 2022).
Read-outs that look alike come from different tables or passages of the source.

Key:
[1] = molecular target: GDP-bound protein (aa 1-169), containing both G12C and C118A amino acid substitutions (Homo sapiens, UniProt P01116, C118A/G12C); test: Coupled Nucleotide Exchange Assay (SOS-mediated nucleotide exchange, AlphaScreen); format: biochemical; settings: 2 hours compound pre-incubation
Summary of the method: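 His-tagged GDP-bound […] (aa 1-169, G12C/C118A) pre-incubated 2 h with compound titration in 25 mM HEPES pH 7.4, 10 mM MgCl2, 0.01% Triton X-100.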

[2] = system: Phosphorylation of ERK½ in MIA PaCa-2 cells; test: Phospho-ERK½ MSD Assay in MIA PaCa-2 cells; format: cell-based; settings: 4 hours compound treatment, 10 ng/mL EGF for 10 min, read-out: p-ERK IC50 (MIA PaCa-2)
Summary of the method: (§1)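 MIA PaCa-2 or A549 cells (25,000/well, RPMI with 10% FBS) exposed to compound titration for 4 h at 37 °C, then stimulated with 10 ng/mL EGF for 10 min and lysed in RIPA. Phospho-ERK1/2 quantified by MSD whole-cell lysate immunoassay; IC50 from 4-parameter logistic fit.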

[3] = system: Phosphorylation of ERK½ in A549 cells; test: Phospho-ERK½ MSD Assay in A549 cells; format: cell-based; settings: Homo sapiens, A549, A549 cells; 4 hours compound treatment; 10 ng/mL EGF for 10 min; read-out: p-ERK IC50 (A549)
Summary of the method: as §1

[4] = Homo sapiens, MIA PaCa-2, MIA PaCa-2 cells

GDP-bound protein (aa 1-169), containing both G12C and C118A amino acid substitutions, sequence (P01116 1-169 isoform P01116-2 G12C/C118A): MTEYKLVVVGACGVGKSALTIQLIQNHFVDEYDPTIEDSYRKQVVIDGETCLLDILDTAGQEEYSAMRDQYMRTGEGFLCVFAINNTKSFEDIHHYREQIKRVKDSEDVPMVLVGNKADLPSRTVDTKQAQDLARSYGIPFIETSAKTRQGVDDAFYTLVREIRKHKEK

Row | Coupled exchange IC50 [1] [µM] | IC50 [2, 4] [µM] | IC50 [3] [µM] | IC50 ([2]; MIA PaCa-2 cells) [µM] | Compound
1 | 0.875 | 2.86 | > 100 | – | C=CC(=O)N(C)C1CN(c2snc3c(F)c(-c4cc(O)cc5ccccc45)c(Cl)cc23)C1 [Example 5-1, N-(1-(5-Chloro-7-fluoro-6-(3-hydroxy-1-naphthalenyl)-2,1-benzothiazol-3-yl)-3-azetidinyl)-N-methyl-2-propenamide]
2 | 0.610 | 3.25 | > 100 | – | C=CC(=O)N1CCN(c2snc3c(F)c(-c4cc(O)cc5ccccc45)c(Cl)cc23)C[C@@H]1C [Example 5-4, 1-((2S)-4-(5-chloro-7-fluoro-6-(3-hydroxy-1-naphthalenyl)-2,1-benzothiazol-3-yl)-2-methyl-1-piperazinyl)-2-propen-1-one]
3 | 0.341 | 2.53 | > 100 | – | C=CC(=O)N1CC[C@@H]2[C@H]1CN2c1snc2c(F)c(-c3cc(O)cc4ccccc34)c(Cl)cc12 [Example 5-5, 1-((1R,5R)-6-(5-chloro-7-fluoro-6-(3-hydroxy-1-naphthalenyl)-2,1-benzothiazol-3-yl)-2,6-diazabicyclo[3.2.0]heptan-2-yl)-2-propen-1-one]
4 | 0.883 | 5.9 | > 100 | – | C=CC(=O)N1CC[C@H]2[C@@H]1CN2c1snc2c(F)c(-c3cc(O)cc4ccccc34)c(Cl)cc12 [Example 5-6, 1-((1S,5S)-6-(5-chloro-7-fluoro-6-(3-hydroxy-1-naphthalenyl)-2,1-benzothiazol-3-yl)-2,6-diazabicyclo[3.2.0]heptan-2-yl)-2-propen-1-one]
5 | 0.815 | 3.79 | > 100 | – | C=CC(=O)N1CCN(c2snc3c(F)c(-c4cc(O)cc5ccccc45)c(Cl)cc23)C[C@H]1C [Example 5-7, 1-((2R)-4-(5-chloro-7-fluoro-6-(3-hydroxy-1-naphthalenyl)-2,1-benzothiazol-3-yl)-2-methyl-1-piperazinyl)-2-propen-1-one]
6 | 0.139 | 0.822 | > 100 | – | C=CC(=O)N1CC(N(C)c2snc3c(F)c(-c4cc(O)cc5ccccc45)c(Cl)cc23)C1 [Example 5-9, 1-(3-((5-Chloro-7-fluoro-6-(3-hydroxynaphthalen-1-yl)benzo[c]isothiazol-3-yl)(methyl)amino)azetidin-1-yl)prop-2-en-1-one]
7 | 0.537 | 1.3 | 3.7 | – | C=CC(=O)N1CCN(c2snc3c(F)c(-c4nc(N)ccc4Cl)c(Cl)cc23)CC1 [Example 6-1, 1-(4-(6-(6-Amino-3-chloro-2-pyridinyl)-5-chloro-7-fluoro-2,1-benzothiazol-3-yl)-1-piperazinyl)-2-propen-1-one]
8 | 0.542 | – | 62.3 | 0.211 | C=CC(=O)N1CCN(c2nc(=O)n(-c3ccccc3C(C)C)c3cc(-c4c(O)cccc4F)c(Cl)cc23)CC1 [Example 8-1, 6-Chloro-7-(2-fluoro-6-hydroxyphenyl)-1-(2-(2-propanyl)phenyl)-4-(4-(2-propenoyl)-1-piperazanyl)-2(1H)-quinazolinone]

Continued, compound first:

Row | Compound | Coupled exchange IC50 [1] [µM] | IC50 [2, 4] [µM] | IC50 [3] [µM] | IC50 ([2]; MIA PaCa-2 cells) [µM]
9 | C=CC(=O)N1CCN(c2snc3c(F)c(-c4cc(O)ccc4C)c(Cl)cc23)CC1 [Example 3-8, 1-(4-(5-chloro-7-fluoro-6-(5-hydroxy-2-methylphenyl)-2,1-benzothiazol-3-yl)-1-piperazinyl)-2-propen-1-one] | 1.07 | 7.05 | > 100 | –
10 | C=CC(=O)N1CCN(c2snc3c(F)c(-c4cc(OC)ccc4Cl)c(Cl)cc23)CC1 [Example 3-9, 1-(4-(5-chloro-6-(2-chloro-5-methoxyphenyl)-7-fluoro-2,1-benzothiazol-3-yl)-1-piperazinyl)-2-propen-1-one] | 3.37 | 9.25 | > 33.3 | –
11 | C=CC(=O)N1CCN(c2snc3c(F)c(-c4cc(O)c(F)cc4F)c(Cl)cc23)CC1 [Example 3-10, 1-(4-(5-chloro-6-(2,4-difluoro-5-hydroxyphenyl)-7-fluoro-2,1-benzothiazol-3-yl)-1-piperazinyl)-2-propen-1-one] | 4.74 | 66.4 | 11.1 | –
12 | C=CC(=O)N1CCN(c2snc3c(F)c(-c4cc(O)ccc4Cl)c(Cl)cc23)CC1 [Example 3-11, 1-(4-(5-chloro-6-(2-chloro-5-hydroxyphenyl)-7-fluoro-2,1-benzothiazol-3-yl)-1-piperazinyl)-2-propen-1-one] | 0.457 | 3.06 | 11.1 | –
13 | C=CC(=O)N1CCN(c2snc3c(F)c(-c4cc(N)ccc4C)c(Cl)cc23)CC1 [Example 3-12, 1-(4-(6-(5-amino-2-methylphenyl)-5-chloro-7-fluoro-2,1-benzothiazol-3-yl)-1-piperazinyl)-2-propen-1-one] | 2.56 | 7.66 | > 100 | –
14 | C=CC(=O)N1CCN(c2snc3c(F)c(-c4cc(N)cc(F)c4F)c(Cl)cc23)CC1 [Example 3-15, 1-(4-(6-(5-amino-2,3-difluorophenyl)-5-chloro-7-fluoro-2,1-benzothiazol-3-yl)-1-piperazinyl)-2-propen-1-one] | 4.03 | 20.1 | > 100 | –
15 | C=CC(=O)N1CCN(c2snc3c(F)c(-c4cc(O)cc(F)c4F)c(Cl)cc23)CC1 [Example 3-16, 1-(4-(5-chloro-6-(2,3-difluoro-5-hydroxyphenyl)-7-fluoro-2,1-benzothiazol-3-yl)-1-piperazinyl)-2-propen-1-one] | 2.60 | 21.3 | > 100 | –
16 | C=CC(=O)N1CCN(c2snc3c(F)c(-c4cc(O)c(F)cc4Cl)c(Cl)cc23)CC1 [Example 3-18, 1-(4-(5-chloro-6-(2-chloro-4-fluoro-5-hydroxyphenyl)-7-fluoro-2,1-benzothiazol-3-yl)-1-piperazinyl)-2-propen-1-one] | 2.60 | > 100 | > 100 | –
17 | C=CC(=O)N1CCN(c2snc3c(F)c(-c4cc(N)ccc4Cl)c(Cl)cc23)CC1 [Example 3-19, 1-(4-(6-(5-amino-2-chlorophenyl)-5-chloro-7-fluoro-2,1-benzothiazol-3-yl)-1-piperazinyl)-2-propen-1-one] | 0.954 | 2.03 | > 33.3 | –
18 | C=CC(=O)N1CCN(c2snc3c(F)c(-c4cc(N)c(Cl)cc4Cl)c(Cl)cc23)CC1 [Example 3-20, 1-(4-(6-(5-amino-2,4-dichlorophenyl)-5-chloro-7-fluoro-2,1-benzothiazol-3-yl)-1-piperazinyl)-2-propen-l-one] | 2.99 | 9.65 | > 100 | –
19 | C=CC(=O)N1CCN(c2snc3c(F)c(-c4cc(O)cc(Cl)c4Cl)c(Cl)cc23)CC1 [Example 3-22, 1-(4-(5-chloro-6-(2,3-dichloro-5-hydroxyphenyl)-7-fluoro-2,1-benzothiazol-3-yl)-1-piperazinyl)-2-propen-1-one] | 0.249 | 1.12 | > 33.3 | –
20 | C=CC(=O)N1CCN(c2snc3c(F)c(-c4cccc5ccccc45)c(Cl)cc23)CC1 [Example 3-23, 1-(4-(5-chloro-7-fluoro-6-(naphthalen-1-yl)benzo[c]isothiazol-3-yl)piperazin-1-yl)prop-2-en-1-one] | 4.65 | 13.6 | > 100 | –
21 | C=CC(=O)N1CCN(c2snc3c(F)c(-c4cccc5cccnc45)c(Cl)cc23)CC1 [Example 3-24, 1-(4-(5-chloro-7-fluoro-6-(quinolin-8-yl)benzo[c]isothiazol-3-yl)piperazin-1-yl)prop-2-en-1-one] | 9.07 | 23.7 | > 100 | –
22 | C=CC(=O)N1CC2(C1)CN(c1snc3c(F)c(-c4cc(O)cc5ccccc45)c(Cl)cc13)C2 [Example 4-1, 1-(6-(5-Chloro-7-fluoro-6-(3-hydroxynaphthalen-1-yl)benzo[c]isothiazol-3-yl)-2,6-diazaspiro[3.3]heptan-2-yl)prop-2-en-1-one] | 0.529 | 2.34 | > 100 | –
23 | C=CC(=O)NC1CN(c2snc3c(F)c(-c4cc(O)cc5ccccc45)c(Cl)cc23)C1 [Example 4-6, N-(1-(5-chloro-7-fluoro-6-(3-hydroxy-1-naphthalenyl)-2,1-benzothiazol-3-yl)-3-azetidinyl)-2-propenamide] | 0.630 | 10.3 | > 100 | –
24 | C=CC(=O)N1CCN(c2nc(=O)n(-c3ccccc3C(C)C)c3cc(-c4c(O)cccc4F)c(Cl)cc23)[C@@H](C)C1 [Example 8-3, 6-chloro-7-(2-fluoro-6-hydroxyphenyl)-4-((2S)-2-methyl-4-(2-propenoyl)-1-piperazinyl)-1-(2-(2-propartyl)phenyl)-2(1H)-quinazolinone] | 0.783 | 0.061 | > 100 | –
